Source: patent US7795290B2 (Genentech, Inc., priority 2004, dated 2010)

target: T1, AKT1 (Homo sapiens, UniProt P31749); assay: HTS ATP-utilizing enzyme assay, off-chip mobility-shift (Caliper HTS 250); type: biochemical; settings: kinase named = inhibitory activity/selectivity; test compound 10 μM; active = greater than three-sigma from mean
T1 construct: purchased Upstate 14-276
Description: The following procedures describe the reagent and plate preparation for a HTS of an ATP-utilizing enzyme, such as a protein kinase, run in an off-chip mobility-shift assay format. The following provides an HTS protocol for running a protein kinase HTS screen on a Caliper HTS 250 microfluidics system. The following parameters are dependent on the protein kinase used and can be determined by one skilled in the art as part of a typical assay development process. For example, the peptide substrate used can be identified from the current literature, by screening a peptide library of potential protein kinase substrates, or by other applicable means accepted in the field.
The following table provides typical screen assay parameters appropriate for a Caliper HTS 250 microfluidics system used to assay AKT1. Parameters used to assay other protein kinases can be determined by one skilled in the art.
Assays to determine the kinase inhibitory activity of chemical entities of the present disclosure were performed using a Caliper HTS 250 microfluidics device, Greiner U-bottom assay plates, a Multidrop for transfer of reagents, and Biomek FX (AMNCBM03) software. Initially, 2.4 μL of a 1 mM solution of a test compound in 100% DMSO was added to a well of the Greiner U-bottom plate. A single Greiner U-bottom plate having 24×16 wells could include multiple test compounds. […] Using the Biomek FX, 10 μL of 0.5 M EDTA was added by the span-8 to wells, indicated as 100% Control and 2.4 μL of 100% DMSO was added by the span-8 to wells, indicated as 0% Control. […] The total reaction volume in each well was 25 μL, and the concentration of the test compound was 10 μM. The assay plate was incubated for 2.5 hrs at 20° C. to 22° C. […] The inhibition of the ATP-utilizing enzyme, such as a particular protein kinase, was determined by measuring the ratio of the peptide substrate to phosphorylated product for each well of the assay plate using the Caliper HTS 250 system.
The use of three-sigma statistical limits represents a conservative method for declaring potential hits among targets. The three-sigma activity, as well as the mean population activity, can be different for each target enzyme.
Each chemical entity listed in Table 2 was tested for protein kinase inhibitory activity according to the biological assays and definitions of protein kinase inhibitory activity as described herein.

T1 sequence (P31749 whole entry): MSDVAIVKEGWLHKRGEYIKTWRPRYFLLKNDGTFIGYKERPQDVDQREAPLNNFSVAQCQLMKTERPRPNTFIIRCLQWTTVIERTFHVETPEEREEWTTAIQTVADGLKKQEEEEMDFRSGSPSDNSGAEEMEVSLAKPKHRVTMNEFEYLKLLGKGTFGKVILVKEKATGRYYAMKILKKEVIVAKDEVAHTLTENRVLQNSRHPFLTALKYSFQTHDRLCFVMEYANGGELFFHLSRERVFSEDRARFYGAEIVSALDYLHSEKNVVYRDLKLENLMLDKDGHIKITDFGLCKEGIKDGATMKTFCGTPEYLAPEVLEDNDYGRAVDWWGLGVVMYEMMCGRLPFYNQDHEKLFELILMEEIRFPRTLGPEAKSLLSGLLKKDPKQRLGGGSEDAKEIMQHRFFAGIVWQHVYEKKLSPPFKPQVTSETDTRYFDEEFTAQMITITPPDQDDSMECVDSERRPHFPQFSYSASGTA

Activity, AKT1:
O=C(c1cccs1)N(CCCN1CCN(CCOCCO)CC1)c1nc(-c2cc3ccccc3o2)cs1 [N-(4-(benzofuran-2-yl)thiazol-2-yl)-N-(3-(4-(2-(2-hydroxyethoxy)ethyl)piperazin-1-yl)propyl)thiophene-2-carboxamide]
CCN(CC)CCCN(C(=O)c1cccs1)c1nc(-c2cc3ccccc3o2)cs1 [N-(4-(benzofuran-2-yl)thiazol-2-yl)-N-(3-(diethylamino)propyl)thiophene-2-carboxamide]
CN(C)CCNC(=O)c1ccc(-c2csc(N(CCCN3CCOCC3)C(=O)c3cccs3)n2)cc1 [N-(4-(4-(2-(dimethylamino)ethylcarbamoyl)phenyl)thiazol-2-yl)-N-(3-morpholinopropyl)thiophene-2-carboxamide]
CC(CO)(CO)C(=O)NCCCN(C(=O)c1cccs1)c1nc(-c2cc3ccccc3o2)cs1 [N-(4-(benzofuran-2-yl)thiazol-2-yl)-N-(3-(3-hydroxy-2-(hydroxymethyl)-2-methylpropanamido)propyl)thiophene-2-carboxamide]
COc1ccc(-c2csc(N(CCCN3CCOCC3)C(=O)c3ccccc3)n2)cc1OC [N-(4-(3,4-dimethoxyphenyl)thiazol-2-yl)-N-(3-morpholinopropyl)benzamide]
COc1ccc(-c2csc(N(CCCN3CCOCC3)C(=O)c3ccccc3)n2)cc1 [N-(4-(4-methoxyphenyl)thiazol-2-yl)-N-(3-morpholinopropyl)benzamide]
COc1ccc(OC)c(-c2csc(N(CCCN3CCCCCC3)C(=O)c3ccco3)n2)c1 [N-(3-(azepan-1-yl)propyl)-N-(4-(2,5-dimethoxyphenyl)thiazol-2-yl)furan-2-carboxamide]
O=C(c1ccco1)N(CCCN1CCOCC1)c1nc(-c2ccccc2)cs1 [N-(3-morpholinopropyl)-N-(4-phenylthiazol-2-yl)furan-2-carboxamide]
NC(=O)CNC(=O)CCCN(C(=O)c1cccs1)c1nc(-c2cc3ccccc3o2)cs1 [N-(4-(2-amino-2-oxoethylamino)-4-oxobutyl)-N-(4-(benzofuran-2-yl)thiazol-2-yl)thiophene-2-carboxamide]
CC(C)(C)OC(=O)N1CCN(C(=O)CCCN(C(=O)c2cccs2)c2nc(-c3cc4ccccc4o3)cs2)CC1 [tert-butyl 4-(4-(N-(4-(benzofuran-2-yl)thiazol-2-yl)thiophene-2-carboxamido)butanoyl)piperazine-1-carboxylate]
CN(C)CCN(C)C(=O)CCN(C(=O)c1cccs1)c1nc(-c2cc3ccccc3o2)cs1 [N-(4-(benzofuran-2-yl)thiazol-2-yl)-N-(3-((2-(dimethylamino)ethyl)(methyl)amino)-3-oxopropyl)thiophene-2-carboxamide]
O=C(c1cccs1)N(CCCN1CCOCC1)c1nc(-c2cc3ccccc3o2)cs1 [N-(4-(benzofuran-2-yl)thiazol-2-yl)-N-(3-morpholinopropyl)thiophene-2-carboxamide]
O=C(c1ccccn1)N(CCCN1CCOCC1)c1nc(-c2cc3ccccc3o2)cs1 [N-(4-(benzofuran-2-yl)thiazol-2-yl)-N-(3-morpholinopropyl)picolinamide]
O=C(c1cccs1)N(CCCC(=O)N1c2ccccc2C[C@H]1CO)c1nc(-c2cc3ccccc3o2)cs1 [(S)—N-(4-(benzofuran-2-yl)thiazol-2-yl)-N-(4-(2-(hydroxymethyl)indolin-1-yl)-4-oxobutyl)thiophene-2-carboxamide]
CN1CCN(CCCN(C(=O)c2ccco2)c2nc(-c3ccccc3)cs2)CC1 [N-(3-(4-methylpiperazin-1-yl)propyl)-N-(4-phenylthiazol-2-yl)furan-2-carboxamidevv]
O=C(CCN(C(=O)c1cccs1)c1nc(-c2cc3ccccc3o2)cs1)N1CCOCC1 [N-(4-(benzofuran-2-yl)thiazol-2-yl)-N-(3-morpholino-3-oxopropyl)thiophene-2-carboxamide]
COc1cccc(NC(=O)c2csc(N(CCCN3CCOCC3)C(=O)c3cccs3)n2)c1 [N-(3-methoxyphenyl)-2-(N-(3-morpholinopropyl)thiophene-2-carboxamido)thiazole-4-carboxamide]
O=C(c1cccs1)N(CCCN1CCOCC1)c1nc(-c2cc(-c3ccc(Cl)cc3)no2)cs1 [N-(4-(3-(4-chlorophenyl)isoxazol-5-yl)thiazol-2-yl)-N-(3-morpholinopropyl)thiophene-2-carboxamide]
COc1cccc(CNC(=O)c2csc(N(CCCN3CCOCC3)C(=O)c3cccs3)n2)c1 [N-(3-methoxybenzyl)-2-(N-(3-morpholinopropyl)thiophene-2-carboxamido)thiazole-4-carboxamide]
O=C(c1cccs1)N(CCCN1CCOCC1)c1nc(-c2ccc(Cl)c([N+](=O)[O-])c2)cs1 [N-(4-(4-chloro-3-nitrophenyl)thiazol-2-yl)-N-(3-morpholinopropyl)thiophene-2-carboxamide]
CC(=O)N(C)C1CCN(CCCN(C(=O)c2cccs2)c2nc(-c3cc4ccccc4o3)cs2)C1 (stereo not shown) [N-(4-(benzofuran-2-yl)thiazol-2-yl)-N-(3-(3-(N-methylacetamido)pyrrolidin-1-yl)propyl)thiophene-2-carboxamide]
CCN(CC)C1CCN(CCCN(C(=O)c2cccs2)c2nc(-c3cc4ccccc4o3)cs2)C1 (stereo not shown) [N-(4-(benzofuran-2-yl)thiazol-2-yl)-N-(3-(3-(diethylamino)pyrrolidin-1-yl)propyl)thiophene-2-carboxamide]
CC(=O)NC1CCN(CCCN(C(=O)c2cccs2)c2nc(-c3cc4ccccc4o3)cs2)C1 (stereo not shown) [N-(3-(3-acetamidopyrrolidin-1-yl)propyl)-N-(4-(benzofuran-2-yl)thiazol-2-yl)thiophene-2-carboxamide]
O=C(CCN(C(=O)c1cccs1)c1nc(-c2cc3ccccc3o2)cs1)NCc1ccoc1 [N-(4-(benzofuran-2-yl)thiazol-2-yl)-N-(3-(furan-3-ylmethylamino)-3-oxopropyl)thiophene-2-carboxamide]
COc1ccc(-c2csc(N(CCCN3CCCC3)C(=O)c3ccco3)n2)cc1 [N-(4-(4-methoxyphenyl)thiazol-2-yl)-N-(3-(pyrrolidin-1-yl)propyl)furan-2-carboxamide]
COc1ccc(-c2csc(N(CCCN3CCN(C)CC3)C(=O)c3cccs3)n2)cc1OC [N-(4-(3,4-dimethoxyphenyl)thiazol-2-yl)-N-(3-(4-methylpiperazin-1-yl)propyl)thiophene-2-carboxamide]
O=C(CC1NC(=O)NC1=O)NCCCN(C(=O)c1cccs1)c1nc(-c2cc3ccccc3o2)cs1 (stereo not shown) [N-(4-(benzofuran-2-yl)thiazol-2-yl)-N-(3-(2-(2,5-dioxoimidazolidin-4-yl)acetamido)propyl)thiophene-2-carboxamide]
CC(C)(C)OC(=O)NCCNC(=O)CCCN(C(=O)c1cccs1)c1nc(-c2cc3ccccc3o2)cs1 [tert-butyl 2-(4-(N-(4-(benzofuran-2-yl)thiazol-2-yl)thiophene-2-carboxamido)butanamido)ethylcarbamate]
O=C(CCCN(C(=O)c1cccs1)c1nc(-c2cc3ccccc3o2)cs1)N1Cc2ccccc2C1 [N-(4-(benzofuran-2-yl)thiazol-2-yl)-N-(4-(isoindolin-2-yl)-4-oxobutyl)thiophene-2-carboxamide]
CCOC(=O)c1csc(N(CCCN2CCOCC2)C(=O)c2cccs2)n1 [ethyl 2-(N-(3-morpholinopropyl)thiophene-2-carboxamido)thiazole-4-carboxylate]
COc1ccc(-c2csc(N(CCCN3CCCC3)C(=O)c3cccs3)n2)cc1 [N-(4-(4-methoxyphenyl)thiazol-2-yl)-N-(3-(pyrrolidin-1-yl)propyl)thiophene-2-carboxamide]
O=C(c1cccs1)N(CCCN1CCOCC1)c1nc(C2CCCCC2)cs1 [N-(4-cyclohexylthiazol-2-yl)-N-(3-morpholinopropyl)thiophene-2-carboxamide]
NC(=O)C1CCCN1C(=O)CCCN(C(=O)c1cccs1)c1nc(-c2cc3ccccc3o2)cs1 (stereo not shown) [1-(4-(N-(4-(benzofuran-2-yl)thiazol-2-yl)thiophene-2-carboxamido)butanoyl)pyrrolidine-2-carboxamide]
NC(=O)C1CCCN1CCCN(C(=O)c1cccs1)c1nc(-c2cc3ccccc3o2)cs1 (stereo not shown) [1-(3-(N-(4-(benzofuran-2-yl)thiazol-2-yl)thiophene-2-carboxamido)propyl)pyrrolidine-2-carboxamide]
